From patent US20120094939A1, “ANTI-VIRAL COMPOUNDS, COMPOSITIONS AND METHODS” (priority 2007, published 2012) come the findings set out here.

The experiment concerns Huh7/Rep-Feo HCV replicon. As to the kind of experiment: Optimization of Huh7/Rep-Feo cells for 96-/384-well plates with PEG-IFN as positive control. In kind it is cell-based, Hepatitis C virus (strain HCV—N, genotype 1b). To be noted: 96-well plates; measurements at 24, 48, 72 hours. Here is the method:
Optimization of Huh-7/Rep-Feo Cells for the 384-Well Plate Format. The Huh7/Rep-Feo cells were first optimized for the 96-well plate format (FIG. 9). […] Cells were seeded at densities of 5000 and 10,000 cells/well in 100_L of medium in 96-well plates. The cells were allowed to attach overnight (approximately 24 hours) before addition of PEG-IFN at various concentrations (day 0). The plates were then incubated further, and measurements were taken at 24, 48, and 72 hours. At each time point, the plates were equilibrated at room temperature, an equal volume of Bright-Glo reagent (Promega, Madison, Wis.) was added, and the plates were read in a LumiCount (Packard BioScience Company, Downers Grove, Ill.) luminometer. […] Results were expressed as the mean of three replicate wells. […]
Optimization of Huh-7/Rep-Feo cells for the 384-well plate format: Cells were propagated in Dulbecco's Modified Eagle's medium (DMEM) containing 10% fetal bovine serum (FBS) supplemented with 1% penicillin-streptomycin, and 500 μg of Geneticin (Invitrogen Corp., Carlsbad, Calif.)/ml. […] At each time point, the plates were equilibrated at room temperature, an equal volume of Bright-Glo reagent (Promega, Madison, Wis.) was added, and the plates were read in a LumiCount™ (Packard BioScience Company, Downers Grove, Ill.) luminometer. […] Results were expressed as the mean of three replicate wells. […]

For Peginterferon-alfa-2b [PEG-IFN], the “antiviral activity over time (in words)” value is “progressively increased over time”.
